Reference: patent EP0479665A2, “1,4-Dihydropyridine derivatives, method for preparing the same and use thereof” (TEIKOKU CHEMICAL INDUSTRIES CO., LTD., priority 1990, dated 1992)
Where a name gives a salt, the structure may show the parent alone. Read-outs that look alike come from different tables or passages of the source. Marks after values point to notes of the source that are not given here.

Columns and labels:
[1] = test system: spontaneously hypertensive rats; test: Antihypertensive action, tail-cuff method, single oral dose; format: in vivo; conditions: difference in blood pressure before and after administration; 10 mg/kg oral; an hour after the administration; two rats
Procedure: Measurement was conducted an hour after the administration. […] The antihypertensive action of each of […] nicardipine was also measured for comparison.

thoracic aorta = test: Calcium antagonism: relaxation of thoracic aorta helical strips contracted with hyperpotassium solution; format: cell-based, rabbit; conditions: Oryctolagus cuniculus; concentration for 50 % relaxation; hyperpotassium solution (50 mM); relaxation with 10^-4 M papaverine defined as 100 %; read-out: Measured Value (IC50)
Procedure: A thoracic aorta was removed from a rabbit to obtain a helical strips (width: 3 mm; length: 30 mm). This strip was suspended under a load of 0.5 g in a Magnus tube filled with Krebs-Henseleit solution. Subsequently, the Krebs-Henseleit solution was replaced with hyperpotassium solution (50 mM) to contract the strip. The strip was then left to stand until the contraction was stabilized. Thereafter, the compounds obtained in Examples 18, 19 and 20 and dissolved in ethanol-distilled water were added to the strip.
The concentration (IC50) of each compound required for obtaining relaxation of 50 % was measured. It is to be noted that the relaxation of a strip treated with 10-^4M papaverine was defined to 100 %.

in vivo = conditions: oral, after a fast, 4-week old mouse, read-out: Toxicity (LD50)
Procedure: After a fast, a ddy-mouse (4-week old) was orally given a solution obtained by dissolving and/or suspending the compound in each Example 18, 19 and 20 in dimethylsulfoxide (DMSO) or carboxymethylcellulose (CMC). The value of LD50 was calculated from the mortality.

[2] = test system: spontaneously hypertensive rats; test: Antihypertensive action regarding administration amount, tail-cuff method; format: in vivo; conditions: for ED (40 mmHg decrease): Rattus norvegicus, read-out: ED-40 mmHg; for T1/2(dose): time for recovery to 50 % of maximal effect (index of persistence)
Procedure: Ten spontaneously hypertensive rats (10 - 20 week old) were used for this test. Blood pressure was measured in accordance with tail-cuff method by employing a blood pressure gauge for small animals UR-1000 (manufactured by Ueda Works, Ltd., Japan). […] The amount of each compound required for lowering the blood pressure of 40 mmHg decrease in blood pressure was calculated from the relationship between the administration amount and the blood pressure after adiministration (lowermost blood pressure). This amount was defined as ED-40 mmHg for serving as an index of antihypertensive action. Tz was shown as the time required for recovery to 50 % of maximal […]. This value was used for an index of persistence.

[3] = oral amount for a 40 mmHg decrease in blood pressure, suspended in 0.5 % carboxymethylcellulose, ten rats

COC(=O)C1=C(C)NC(C)=C(C(=O)OCC2(CN(C)Cc3ccc(F)cc3)CCCCC2)C1c1cccc([N+](=O)[O-])c1 (single isomer, unassigned) [Example 26]
Antihypertensive Action [1]: -111 mmHg

COC(=O)C1=C(C)NC(C)=C(C(=O)OCC2(CN(C)Cc3ccccc3)CCCCC2)C1c1cccc([N+](=O)[O-])c1.Cl (single isomer, unassigned; (+)) [Example 18, (+)-1,4-dihydro-2,6-dimethyl-4-(3'-nitro-phenyl)-3,5-pyridinedicarboxylic acid 1-(N-benzyl-N-methylaminomethyl)cyclohexylmethyl methyl ester hydrochloride]
Antihypertensive Action [1]: -96 mmHg | IC50 (thoracic aorta): 100 nM | LD50 (in vivo; medium DMSO): 130 mg/kg | ED (40 mmHg decrease) [2, 3]: 0.7 mg/kg | T1/2(dose) ([2]; oral dose 3 mg/kg): >6.0 hr(3 mg/kg)*

COC(=O)C1=C(C)NC(C)=C(C(=O)OC)C1c1ccccc1[N+](=O)[O-] [Nifedipine, nifedipine, reference compound]
Antihypertensive Action [1]: -58 mmHg | IC50 (thoracic aorta): 29 nM | ED (40 mmHg decrease) ([2]; po): 3.3 mg/kg

COC(=O)C1=C(C)NC(C)=C(C(=O)OCC2(CN3CCN(C)CC3)CCCCC2)C1c1cccc([N+](=O)[O-])c1 (racemic) [Example 11]
Antihypertensive Action [1]: -74 mmHg

COC(=O)C1=C(C)NC(C)=C(C(=O)OCC2(CN(C)Cc3ccccc3)CCCCC2)C1c1cc([N+](=O)[O-])ccc1F (racemic) [Example 8]
Antihypertensive Action [1]: -140 mmHg

COC(=O)C1=C(C)NC(C)=C(C(=O)OCCN(C)Cc2ccccc2)C1c1cccc([N+](=O)[O-])c1 (stereo not drawn) [Nicardipine, nicardipine, reference compound]
Antihypertensive Action [1]: -77 mmHg | IC50 (thoracic aorta): 6.8 nM | LD50 (in vivo; medium DMSO): 190 mg/kg | ED (40 mmHg decrease) [2, 3]: 2.6 mg/kg | T1/2(dose) ([2]; oral dose 10 mg/kg): 4.5 hr(10mg/kg)*

COC(=O)C1=C(C)NC(C)=C(C(=O)OCC2(CN3CCN(Cc4ccccc4)CC3)CCCCC2)C1c1cccc([N+](=O)[O-])c1 (racemic) [Example 10]
Antihypertensive Action [1]: -110 mmHg

COC(=O)C1=C(C)NC(C)=C(C(=O)OCC2(CN3CCOCC3)CCCCC2)C1c1cccc([N+](=O)[O-])c1 (racemic) [Example 12]
Antihypertensive Action [1]: -113 mmHg

COC(=O)C1=C(C)NC(C)=C(C(=O)OCC2(CN3CCN(C(c4ccccc4)c4ccccc4)CC3)CCCCC2)C1c1cccc([N+](=O)[O-])c1 (racemic) [Example 17]
Antihypertensive Action [1]: -112 mmHg

COC(=O)C1=C(C)NC(C)=C(C(=O)OCC2(CN(C)Cc3ccccc3)CCCCC2)C1c1cccc([N+](=O)[O-])c1.Cl (racemic) [Example 1, 1,4-dihydro-2,6-dimethyl-4-(3'-nitrophenyl)-3,5-pyridinedicarboxylic acid 1-(N-benzyl-N-methylaminomethyl)cyclohexylmethyl methyl ester hydrochloride]
Antihypertensive Action [1]: -131 mmHg

CCOC(=O)C1=C(C)NC(C)=C(C(=O)OCC2(CN(C)C)CCCCC2)C1c1cccc([N+](=O)[O-])c1 (racemic) [Example 7]
Antihypertensive Action [1]: -61 mmHg

COC(=O)C1=C(C)NC(C)=C(C(=O)OCC2(CN(C)Cc3ccc(Cl)cc3)CCCCC2)C1c1cccc([N+](=O)[O-])c1 (single isomer, unassigned) [Example 22]
Antihypertensive Action [1]: -122 mmHg

CCN(CC)CC1(COC(=O)C2=C(C)NC(C)=C(C(=O)OC)C2c2cccc([N+](=O)[O-])c2)CCCCC1 (racemic) [Example 13]
Antihypertensive Action [1]: -108 mmHg

CCN(Cc1ccccc1)CC1(COC(=O)C2=C(C)NC(C)=C(C(=O)OC)C2c2cccc([N+](=O)[O-])c2)CCCCC1 (single isomer, unassigned) [Example 27]
Antihypertensive Action [1]: -109 mmHg

CC1=C(C(=O)OCC2(CN(C)C)CCCCC2)C(c2cccc([N+](=O)[O-])c2)C(C(=O)OC(C)C)=C(C)N1 (racemic) [Example 5]
Antihypertensive Action [1]: -68 mmHg

COC(=O)C1=C(C)NC(C)=C(C(=O)OCC2(CN(C)Cc3ccccc3Cl)CCCCC2)C1c1cccc([N+](=O)[O-])c1 (racemic) [Example 16]
Antihypertensive Action [1]: -120 mmHg

COC(=O)C1=C(C)NC(C)=C(C(=O)OCC2(CN3CCN(Cc4ccccc4)CC3)CCCCC2)C1c1cccc([N+](=O)[O-])c1 (single isomer, unassigned) [Example 25]
Antihypertensive Action [1]: -98 mmHg

COC(=O)C1=C(C)NC(C)=C(C(=O)OCC2(CN(C)C)CCCCC2)C1c1cccc([N+](=O)[O-])c1 (single isomer, unassigned) [Example 21]
Antihypertensive Action [1]: -53 mmHg

COC(=O)C1=C(C)NC(C)=C(C(=O)OCC2(CN3CCN(c4ccccc4)CC3)CCCCC2)C1c1cccc([N+](=O)[O-])c1 (single isomer, unassigned; (+)) [Example 20, (+)-1,4-dihydro-2,6-dimethyl-4-(3'-nitro-phenyl)-3,5-pyridinedicarboxylic acid methyl 1-(4-phenylpiperazinylmethyl)cyclohexylmethyl ester dihydrochloride]
Antihypertensive Action [1]: -129 mmHg | IC50 (thoracic aorta): 420 nM | LD50 (in vivo; medium CMC): 290 mg/kg | ED (40 mmHg decrease) [2, 3]: 0.3 mg/kg | T1/2(dose) ([2]; oral dose 1 mg/kg): >6.0 hr(1 mg/kg)*

COC(=O)C1=C(C)NC(C)=C(C(=O)OCC2(CN3CCCCC3)CCCCC2)C1c1cccc([N+](=O)[O-])c1 (single isomer, unassigned; (+)) [Example 19, (+)-1,4-dihydro-2,6-dimethyl-4-(3'-nitro-phenyl)-3,5-pyridinedicarboxylic acid methyl (1-piperidinylmethylcyclohexyl)methyl ester hydrochloride]
Antihypertensive Action [1]: -75 mmHg | IC50 (thoracic aorta): 1.5 nM | LD50 (in vivo; medium DMSO): 100 mg/kg | ED (40 mmHg decrease) [2, 3]: 0.5 mg/kg | T1/2(dose) ([2]; oral dose 3 mg/kg): >6.0 hr(3 mg/kg)*

COC(=O)C1=C(C)NC(C)=C(C(=O)OCC2(CN3CCN(c4ccccc4)CC3)CCCCC2)C1c1cccc([N+](=O)[O-])c1 (racemic) [Example 3, 1,4-dihydro-2,6-dimethyl-4-(3'-nitrophenyl)-3,5-pyridinedicarboxylic acid methyl 1-(4-phenylpiperazinylmethyl)cyclohexylmethyl ester dihydrochloride.1/2 acetone adduct]
Antihypertensive Action [1]: -109 mmHg

COC(=O)C1=C(C)NC(C)=C(C(=O)OCC2(CN3CCOCC3)CCCCC2)C1c1cccc([N+](=O)[O-])c1 (single isomer, unassigned) [Example 23]
Antihypertensive Action [1]: -87 mmHg

COC(=O)C1=C(C)NC(C)=C(C(=O)OCC2(CN3CCN(C)CC3)CCCCC2)C1c1cccc([N+](=O)[O-])c1 (single isomer, unassigned) [Example 24]
Antihypertensive Action [1]: -79 mmHg

CCOC(=O)C1=C(C)NC(C)=C(C(=O)OCC2(CN(C)Cc3ccccc3)CCCCC2)C1c1cccc([N+](=O)[O-])c1 (racemic) [Example 6, 1,4-dihydro-2,6-dimethyl-4-(3'-nitrophenyl)-3,5-pyridinedicarboxylic acid 1-(N-benzyl-N-methylaminomethyl)cyclohexylmethyl ethyl ester]
Antihypertensive Action [1]: -110 mmHg

COC(=O)C1=C(C)NC(C)=C(C(=O)OCC2(CN(C)Cc3ccc(F)cc3)CCCCC2)C1c1cccc([N+](=O)[O-])c1 (racemic) [Example 15]
Antihypertensive Action [1]: -114 mmHg

1,4-dihydro-2,6-dimethyl-4-(3'-nitrophenyl)-3,5-pyridinedicarboxylic acid methyl (1-piperidinylmethylcyclohexyl)methyl ester hydrochloride [Example 2]
Antihypertensive Action [1]: -89 mmHg

COC(=O)C1=C(C)NC(C)=C(C(=O)OCCN2CCN(C(c3ccccc3)c3ccccc3)CC2)C1c1cccc([N+](=O)[O-])c1 (stereo not drawn) [Manidipine, reference compound]
IC50 (thoracic aorta): 27 nM | LD50 (in vivo; medium CMC): 200 mg/kg | ED (40 mmHg decrease) [2, 3]: 1.7 mg/kg | T1/2(dose) ([2]; oral dose 3 mg/kg): 5.0 hr(3 mg/kg)*
